This is an account of results in US20210238698A1, “METHODS OF DIAGNOSING AND TREATING CANCER PATIENTS EXPRESSING HIGH LEVELS OF TGF-B RESPONSE SIGNATURE” (MEDPACTO, INC., priority 2018, published 2021).

For the assay, the system named is patients with advanced solid tumors. Put plainly: Phase I trial of single administration of Vactosertib, tumor assessment (anti-tumor activity). The class given is in vivo, human. An excerpt: A ‘responder’ refers to a Patient whose best overall response on treatment was stable disease (SD) or greater, and a ‘non-responder’ refers to a patient whose best overall response on treatment was progression on disease (PD) or worse. The unit for all data of gene expression is TPM (Transcripts Per Kilobase Million). The CD8A gene is implicated in playing an important role in the immune response. The cytolytic score is used to assess anticancer immunity. […]
In particular, the F-TBRS and the cytolytic score in cancer of responders and non-responders at the Phase I trial of single administration of Vactosertib (the compound represented by Formula II; TEW-7197) were analyzed and the results were shown in FIG. 3.
In addition, the EMT/F-TBRS expression distribution from the TCGA database of bladder cancer was analyzed and the results are shown in FIG. 4. […]

Regarding `Cc1cccc(-c2[nH]c(CNc3ccccc3F)nc2-c2ccc3ncnn3c2)n1` [Vactosertib, N-((4-([1,2,4]triazolo[1,5-a]pyridin-6-yl)-5-(6-methylpyridin-2-yl)-1H-imidazol-2-yl)methyl)-2-fluoroaniline], the “patients who achieved SD (stable disease, responder)” value (Phase I, higher doses (≥140 mg, qd)) was “seven”. For the same molecule, for the setting “one patient with bladder cancer at the Phase I trial, high EMT/F-TBRS expression”, the tumor shrinkage is −25%.
